# Experimental data as given in US20060058274A1, “Use of an aldosterone receptor antagonist to improve cognitive function” (Pharmacia Corporation, priority 2000, published 2006).
# Marks after values point to notes of the source that are not given here.
# Legend:
# women with PMS = conditions: cited from earlier work
# [1] = tested on: patients with mild-to-moderate hypertension; assay: Phase II dose-ranging study of eplerenone in mild-to-moderate hypertension; format: in vivo, human; conditions: 50 mg BID
# Description: The adjusted mean changes (in mmHg) in diastolic blood pressure (DBP) and systolic blood pressure (SBP) from baseline to final visit are shown in Table 1A.
# animal models = conditions: cited from earlier work
# rats = conditions: prior treatment; scopolamine cholinergic blockade; cited from earlier work
# [2] = tested on: patients with severe heart failure; assay: Clinical study in patients with severe heart failure: HRQOL by SF-36; format: in vivo, human; conditions: for Change from baseline in SF-36 Bodily Pain / Change from baseline in SF-36 General Health / Change from baseline in SF-36 Mental Composite Summary (MCS) / Change from baseline in SF-36 Mental Health / Change from baseline in SF-36 Physical Composite Summary (PCS) / Change from baseline in SF-36 Physical Functioning / Change from baseline in SF-36 Role Limitations - Emotional / Change from baseline in SF-36 Role Limitations - Physical / Change from baseline in SF-36 Social Functioning / Change from baseline in SF-36 Vitality: 25 mg daily, mean ± SD; for Effect size estimate for change in SF-36 Bodily Pain / Effect size estimate for change in SF-36 General Health / Effect size estimate for change in SF-36 Mental Composite Summary (MCS) / Effect size estimate for change in SF-36 Mental Health / Effect size estimate for change in SF-36 Physical Composite Summary (PCS) / Effect size estimate for change in SF-36 Physical Functioning / Effect size estimate for change in SF-36 Role Limitations - Emotional / Effect size estimate for change in SF-36 Role Limitations - Physical / Effect size estimate for change in SF-36 Social Functioning / Effect size estimate for change in SF-36 Vitality: [mean (spironolactone) − mean (placebo)]/(SD placebo at baseline)
# Description: Patients: One thousand six hundred and sixty-three (1,663) patients with severe heart failure were enrolled in the study. […] Treatment with digitalis and vasodilators was allowed, but potassium-sparing diuretics were not permitted. Oral potassium supplements were not recommended unless hypokalemia (serum potassium ≦3.5 mmol per liter) developed. A low salt diet (100-200 mEg/day, sodium) was recommended to all patients. Patients were excluded from the trial if they had clinically significant operable valvular disease (other than mitral or tricuspid regurgitation), congenital heart disease, unstable angina, primary hepatic failure, active malignancy, a heart transplant or were a candidate for heart transplantation, or any life threatening diseae (other than heart failure). Other criteria for exclusion were a serum creatinine concentration >2.5 mg per deciliter (>220 μmol per liter) or a serum potassium concentration >5.0 mmol per liter. The protocol was approved by the Institutional Review Boards or Ethics Committees of all participating institutions. Written informed consent was obtained from all patients.
# Study Group: Subjects were randomly assigned to receive either spironolactone 25 mg daily or placebo. HRQOL was assessed in a subsample of 90 subjects in 2 participating countries using the Medical Outcomes Trust Short-Form 36-item Health Survey (SF-36). Assessments were scheduled at baseline, 1, 2, 3, and 6 months after initiation of therapy.
# HRQOL Evaluation: HRQOL was assessed using the Short-Form 36-item Health Survey (SF-36). (Ware J E, Snow K K, Kosinski M, Gandek B. SF-36 Health Survey: Manual and Interpretation Guide. Boston, Mass.: The Health Institute, 1993). Assessments were scheduled at baseline, 1, 2, 3, 6 and 12 months after initiation of therapy. The analysis presented herein is limited to 6-month follow-up as less than 50% of subjects had 12-month follow-up data.
# Statistical Analyses: Change from baseline was assessed for the 8 dimension scores of the SF-36, as well as the Physical (PCS) and Mental Composite Summary (MCS) scores. (Ware J E, Kosinski M, Keller S D. SF-36 Physical and Mental Health Summary Scales: A User's Manual. Boston, Mass.: The Health Institute, 1994). The PCS and MCS are generated to represent weighted summaries scores of the four physical functioning scales and four mental functioning scales of the SF-36. The summary scores are generally regarded as having improved reliability and precision as they are based on an incrementally larger number of health states contained in the SF-36 items. (Ware J E, Kosinski M, Keller S D. SF-36 Physical and Mental Health Summary Scales: A User's Manual. Boston, Mass.: The Health Institute, 1994.) Changes from baseline scores were compared between groups using non-directional independent groups t-tests. An alpha level of 0.05 was considered to be statistically significant. As an indicator of the responsiveness of the SF-36 scales to changes in health-related quality of life in severe heart failure patients, effect size estimates were also calculated. Effect size estimates were calculated as [mean (spironolactone)−mean (placebo)]/(SD placebo at baseline). (Hays R D, Anderson R, Revicki D. Psychometric considerations in evaluating health-related quality of life. Quality of Life Research 1993;2:441-449; Samsa G, Edelman D, Rothman M L, et al. Determining clinically important differences in health status measures. A general approach with illustrations to the Health Utilities Index Mark II. PharmacoEconomics1999;15:141-155). All analyses were carried out using SAS System for Windows, Release 6.12. (SAS version 6.12, SAS Institute Inc., North Carolina, 1996).
# Patient Characteristics: Baseline HRQOL was assessed in a subsample of 90 subjects in 2 participating countries (i.e., Brazil and Canada). Forty-six subjects were randomized to spironolactone; 44 were randomized to the placebo arm. Sixty subjects had complete data for the 6 months of follow-up.
# [3] = 100 mg daily from day 14 of menstrual cycle, compared to placebo, p<0.001
# [4] = ambulatory blood pressure monitoring
# [5] = 3 months, listed as spironolactone
# [6] = 6 months, listed as spironolactone
# [7] = added to conventional heart failure therapy, severe HF
smiles,measurement,setting,value
"CC(=O)SC1CC2=CC(=O)CCC2(C)C2CCC3(C)C(CCC34CCC(=O)O4)C12 (stereo not shown) [Spironolactone, 17-hydroxy-7″-mercapto-3-oxo-17″-pregn-4-ene-21-carboxylic acid γ-lactone acetate]",negative mood symptom scores,women with PMS; [3],significant decrease
same,somatic symptom scores,women with PMS; [3],significant decrease
same,"irritability, depression, feeling of swelling, breast tenderness and food craving",women with PMS; in comparison to placebo,significantly improved
same,adjusted mean change in ABPM DBP from baseline to final visit,[1]; [4],−8.7 mmHg
same,adjusted mean change in ABPM SBP from baseline to final visit,[1]; [4],−15.8 mmHg
same,adjusted mean change in Cuff DBP from baseline to final visit,[1]; eight-week study,−9.5 mmHg
same,adjusted mean change in Cuff SBP from baseline to final visit,[1]; eight-week study,−16.7 mmHg
same,myocardial fibrosis,animal models,prevents
same,enhanced reactivity to novelty,rats,ameliorated
same,Change from baseline in SF-36 Bodily Pain,[2]; 3 months,19.6 ± 30.0^a
same,Change from baseline in SF-36 General Health,[2]; 3 months,9.7 ± 20.4^a
same,Change from baseline in SF-36 Mental Composite Summary (MCS),[2]; 3 months,"13.2 ± 11.8^a,b"
same,Change from baseline in SF-36 Mental Health,[2]; 3 months,"19.9 ± 21.2^a,b"
same,Change from baseline in SF-36 Physical Composite Summary (PCS),[2]; 3 months,3.0 ± 8.1^a
same,Change from baseline in SF-36 Physical Functioning,[2]; 3 months,7.9 ± 19.4^a
same,Change from baseline in SF-36 Role Limitations - Emotional,[2]; 3 months,37.8 ± 46.1^a
same,Change from baseline in SF-36 Role Limitations - Physical,[2]; 3 months,23.3 ± 40.1^a
same,Change from baseline in SF-36 Social Functioning,[2]; 3 months,24.6 ± 33.6^a
same,Change from baseline in SF-36 Vitality,[2]; 3 months,16.7 ± 24.1^a
same,Change from baseline in SF-36 Mental Composite Summary (MCS),[2]; [5],13.2±11.8
same,Change from baseline in SF-36 Mental Health,[2]; [5],19.9±21.2
same,Effect size estimate for change in SF-36 Bodily Pain,[2]; 3 months,0.40
same,Effect size estimate for change in SF-36 General Health,[2]; 3 months,0.03
same,Effect size estimate for change in SF-36 Mental Composite Summary (MCS),[2]; 3 months,0.86
same,Effect size estimate for change in SF-36 Mental Health,[2]; 3 months,0.76
same,Effect size estimate for change in SF-36 Physical Composite Summary (PCS),[2]; 3 months,−0.21
same,Effect size estimate for change in SF-36 Physical Functioning,[2]; 3 months,−0.23
same,Effect size estimate for change in SF-36 Role Limitations - Emotional,[2]; 3 months,0.48
same,Effect size estimate for change in SF-36 Role Limitations - Physical,[2]; 3 months,0.33
same,Effect size estimate for change in SF-36 Social Functioning,[2]; 3 months,0.26
same,Effect size estimate for change in SF-36 Vitality,[2]; 3 months,−0.07
same,Change from baseline in SF-36 Bodily Pain,[2]; 6 months,15.9 ± 30.5^a
same,Change from baseline in SF-36 General Health,[2]; 6 months,12.0 ± 22.3^a
same,Change from baseline in SF-36 Mental Composite Summary (MCS),[2]; 6 months,10.3 ± 12.8^a
same,Change from baseline in SF-36 Mental Health,[2]; 6 months,"17.5 ± 22.9^a,b"
same,Change from baseline in SF-36 Physical Composite Summary (PCS),[2]; 6 months,3.9 ± 9.1^a
same,Change from baseline in SF-36 Physical Functioning,[2]; 6 months,11.4 ± 21.5^a
same,Change from baseline in SF-36 Role Limitations - Emotional,[2]; 6 months,24.0 ± 39.9^a
same,Change from baseline in SF-36 Role Limitations - Physical,[2]; 6 months,14.8 ± 32.3^a
same,Change from baseline in SF-36 Social Functioning,[2]; 6 months,23.1 ± 32.1^a
same,Change from baseline in SF-36 Vitality,[2]; 6 months,19.0 ± 25.5^a
same,Change from baseline in SF-36 Mental Composite Summary (MCS),[2]; [6],10.3±12.8
same,Change from baseline in SF-36 Mental Health,[2]; [6],17.5±22.9
same,Effect size estimate for change in SF-36 Bodily Pain,[2]; 6 months,0.28
same,Effect size estimate for change in SF-36 General Health,[2]; 6 months,0.08
same,Effect size estimate for change in SF-36 Mental Composite Summary (MCS),[2]; 6 months,0.64
same,Effect size estimate for change in SF-36 Mental Health,[2]; 6 months,0.59
same,Effect size estimate for change in SF-36 Physical Composite Summary (PCS),[2]; 6 months,−0.07
same,Effect size estimate for change in SF-36 Physical Functioning,[2]; 6 months,−0.11
same,Effect size estimate for change in SF-36 Role Limitations - Emotional,[2]; 6 months,−0.42
same,Effect size estimate for change in SF-36 Role Limitations - Physical,[2]; 6 months,−0.18
same,Effect size estimate for change in SF-36 Social Functioning,[2]; 6 months,0.20
same,Effect size estimate for change in SF-36 Vitality,[2]; 6 months,0.13
same,effect on physical health or functioning,[2]; [7],no detrimental effect
same,impact on mental health status,[2]; [7],"strong, positive impact"
